Experimental data reported in patent US20050209157A1, “Short bioactive peptides and methods for their use” (priority 2001, published 2005).
Read-outs that look alike come from different tables or passages of the source. No end group written: not given here.

Experiments:
in vitro [1] = format: cell-based, human; details: human, human red blood cells
SW480 = test: Anti-cancer assay, MTT, LD50; format: cell-based; details: SW480 colon adenocarcinoma line, 24 hours with peptide
Text: (§1) Numbers are LD50 values (μg/mL).

MCF7 = test: Anti-cancer assay, MTT, LD50; format: cell-based; details: for MCF7 LD50: Table 41, lower part
Text: as §1

HeLaS3 = test: Anti-cancer assay, MTT, LD50; format: cell-based; details: 24 hours with peptide, cervical carcinoma
Text: as §1

H1299 = test: Anti-cancer assay, MTT, LD50; format: cell-based; details: 24 hours with peptide, lung large cell carcinoma
Text: as §1

BMKC = test: Anti-cancer assay, MTT, LD50; format: cell-based; details: BMKC cloned melanoma line, 24 hours with peptide
Text: as §1

PC3 = test: Anti-cancer assay, MTT, LD50; format: cell-based; details: 24 hours with peptide, prostate adenocarcinoma
Text: as §1

[2] = system: Pseudomonas aeruginosa ATCC 9027; test: Antimicrobial assay I, MIC by OD measurement; format: cell-based; details: 37° C. for 24 hours, absorbance 620 nm
[3] = system: Staphylococcus aureus ATCC 6538; test: Antimicrobial assay I, MIC by OD measurement; format: cell-based; details: 37° C. for 24 hours, absorbance 620 nm
P. aeruginosa = format: cell-based, Pseudomonas aeruginosa; details: P. aeruginosa H744; MIC of nalidixic acid with peptide at ¼ MIC
Procedure, shortened: (§2)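 Efflux-mutant strains were tested with two-fold serial dilutions of chloramphenicol or nalidixic acid, alone and with peptide held at ¼ of its own MIC.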

P. aeruginosa H374 = format: cell-based, Pseudomonas aeruginosa; details: for MIC Cm-comb.: MIC of chloramphenicol with peptide at ¼ MIC; for MIC Nal-comb.: MIC of nalidixic acid with peptide at ¼ MIC; for FIC Index: 0.5 or less = synergy
Procedure, shortened: as §2

P. aeruginosa H774 = format: cell-based, Pseudomonas aeruginosa; details: P. aeruginosa H744; nalidixic acid + peptide at ¼ MIC; 0.5 or less = synergy
Procedure, shortened: as §2

WI38 = details: MTT, 24 hours with peptide; normal fibroblast line
in vitro [4] = details: human, WI38 normal lung fibroblast cells
[5] = Solubility of peptides in sheep serum; format: physicochemical
[6] = system: yeast (Saccharomyces cerevisiae); test: Antimicrobial assay I, yeast assay in RPMI 1640; format: cell-based; details: RPMI 1640 media
Pseudomonas aeruginosa = test: Serum inactivation of peptides, serum MIC; format: cell-based; details: for MIC 30 min treatment: sheep serum 37° C. 30 minutes; for MIC 2 hr treatment: sheep serum 37° C. 2 hours
Experimental: Subsequently, the serum MICs against Pseudomonas aeruginosa were conducted to determine extent of serum inactivation of the peptides.

[7] = Leukocyte (WBC) inhibition, toxicity LD50; format: cell-based, human; details: male, human, human leukocytes (buffy coat cells, mostly PBMCs); Table 41, lower part
Experimental: In vitro viability of human leukocyte cells in the presence of different peptides at different concentrations was determined by an Alamar Blue protocol. Alamar Blue (Promega, Madison, Wis.) is an indicator dye, formulated to measure quantitatively the proliferation and cytotoxicity of the cells. The dye consists of an oxidation-reduction (redox) indicator that yields a calorimetric change and a fluorescent signal in response to cellular metabolic activity.
Assay protocol: Blood from a human was drawn and centrifuged at 1500 rpm for 15 minutes at room temperature. The buffy coat cells at the plasma-red blood cell interface were aspirated. Buffy coat cells (mainly lymphocyte cells) were then transferred into 15 ml centrifuge tubes containing 5 ml of RPMI-1640 medium+10% Fetal Bovine Serum (Gibco, Grand Island, N.Y.). Additional medium was added to the tubes to bring the volume up to 10 ml. The buffy coat suspension was then carefully layered on 5 ml of Histopaque (Sigma Chemical Co., St. Louis, Mo.) and centrifuged at 1500 rpm for 30 minutes at room temperature. The interface which is mostly PBMCs (peripheral mononuclear cells) was aspirated and transferred to a 15 ml conical centrifuge tube and, resuspended in 2 ml cold RPMI-1640 and brought up to 15 ml with cold RPMI-1640 medium. Cells were centrifuged at 1500 rpm for 10 minutes. The supernatant was then aspirated and discarded. The cell pellet was re-suspended in 1 ml of cold RPMI 1640 and brought up to 15 ml with RPMI medium. This step was repeated twice, except that in the last step, the cells were resuspended with 1 ml of cold RPMI-1640 medium and cell counts were performed with a hemocytometer according to the Sigma cell culture catalogue.
Pokewood mitogen was used as a control along with positive and negative controls. Negative control cells were killed with 70% methanol. Positive (+) control cells were incubated in RPMI medium (untreated). […] of AlamarBlue was added to the cells, and readings were taken after 24 hours, 48 hours, 72 hours, and 96 hours using a fluorimeter (excitation 544/transmission 590 nm).
In choosing a peptide for possible treatment of a given indication it is important to match the therapeutic activity and specificity of the peptide with its possible toxic properties.
The protocols for WBC and WI38 stimulation have been discussed above. The RBC protocol follows Table 24.

[8] = system: MCF7 line of breast cancer cells; details: for MCF7 LD50: agent alone; for Active agent LD50 on MCF7 cells: Total conc.: peptide plus tamoxifen concentration at LD50; for Active agent LD50 on MCF7 cells: Peptide conc.: peptide with tamoxifen, peptide concentration at LD50; for Active agent LD50 on MCF7 cells: Tamox. conc.: tamoxifen concentration at LD50 (peptide with tamoxifen; tamoxifen alone in its own line)
[9] = pH 7, hemolytic assay, concentration at 50% hemolysis, 1 hour at 37° C., read-out: LD50
[10] = chloramphenicol + peptide at ¼ MIC
[11] = nalidixic acid + peptide at ¼ MIC, FIC=0.25+MIC comb/MIC alone
[12] = pH 7, Table 41, lower part, read-out: RBC LD50
[13] = WI38 LD50, Table 41, lower part

Substance	HC50 at 1 h (in vitro [1]; [9]) [µg/mL]	MIC Nal-comb. (P. aeruginosa) [µg/mL]	MIC Cm-comb. (P. aeruginosa H374) [µg/mL]	MIC Nal-comb. (P. aeruginosa H374) [µg/mL]	FIC Index (P. aeruginosa H374; [10])	FIC Index (P. aeruginosa H374; [11])	FIC Index (P. aeruginosa H774)	Solubility ([5]; sheep serum, […], 70% serum)	MIC 30 min treatment (Pseudomonas aeruginosa; first of two columns) [µg/mL]	MIC 30 min treatment (Pseudomonas aeruginosa; second of two columns) [µg/mL]	MIC 2 hr treatment (Pseudomonas aeruginosa; first of two columns) [µg/mL]	MIC 2 hr treatment (Pseudomonas aeruginosa; second of two columns) [µg/mL]	HC50 at 1 h (in vitro [1]; [12]) [µg/mL]	MCF7 LD50 (MCF7) [µg/mL]	CC50 [7] [µg/mL]	CC50 at 24 h (in vitro [4]; [13]) [µg/mL]	MCF7 LD50 [8] [µg/mL]	Active agent LD50 on MCF7 cells: Total conc. [8] [µg/mL]	Active agent LD50 on MCF7 cells: Peptide conc. [8] [µg/mL]	Active agent LD50 on MCF7 cells: Tamox. conc. [8] [µg/mL]	other results
KWKLFKKKTKLFKKFAKKLAKKL-OH [P81]	8	624	16	5000	1.25	1.25	1.25	Precipitated	20	20	20	20	–	–	–	–	–	–	–	–	LD50 SW480 (SW480): 13 µg/mL; LD50 MCF7 (MCF7; MCF7 breast adenocarcinoma line, MTT, 24 hours with peptide): 63 µg/mL; HeLaS3 LD50 (HeLaS3): 19 µg/mL; H1299 LD50 (H1299): 22 µg/mL; LD50 BMKC (BMKC): 12 µg/mL; PC3 LD50 (PC3): 170 µg/mL; paerug9027 (MIC) [2]: > (> indicates greater than 200 μg/mL); staph6538 (MIC) [3]: 10 µg/mL; WI38 LD50 (WI38): 8 µg/mL; CC50 at 24 h (in vitro [4]; LD50 WI38, WI38 normal lung fibroblast line, MTT, 24 hours with peptide): 8 µg/mL; yeast (MIC or MFC) [6]: > (> indicates greater than 200 μg/mL)
VALALKALKKALKKLKKALKKAL-OH [P508]	70	–	8	5000	0.75	1.25	–	Soluble	40	20	40	20	–	–	–	–	–	–	–	–	Solubility ([5]; sheep, 70% sheep serum): ≥ 1280 µg/mL; change of activity by exposure to serum (serum MIC against Pseudomonas aeruginosa) (Pseudomonas aeruginosa; sheep serum, […], 37° C. for 30 minutes or 2 hours): only modestly decreased
FAKKLAKKLKKLAKKLAK-NH2 [164 (69)]	–	–	–	–	–	–	–	–	–	–	–	–	900	79	140	60	79	7.1	2.5	4.6	–
FAKKLAKKLKKLAKKLAK-NH2 [P69]	–	312	8	2500	0.75	0.75	0.75	Precipitated	20	20	20	20	–	–	–	–	–	–	–	–	–
WALAL-NH2 [145 (184)]	–	–	–	–	–	–	–	–	–	–	–	–	850	240	410	1000	240	14	10	4	–
